Measurements from PubChem BioAssay AID1259407 (Chemical Carcinogenesis Research Information System (CCRIS), 2018).
Activity calls are given as the source filed them. The rule behind the calls is not given here.

Test system: CCRIS mutagenicity, Ames/micronucleus/aberration tests
Assay: CCRIS mutagenicity studies
[1] = Test System: AMES SALMONELLA TYPHIMURIUM, Strain/Indicator: TA98, Metabolic Activation: NONE, Method: STANDARD PLATE
[2] = Test System: AMES SALMONELLA TYPHIMURIUM, Strain/Indicator: TA98, Metabolic Activation: RAT, LIVER, S-9, AROCLOR 1254, Method: STANDARD PLATE
[3] = Test System: AMES SALMONELLA TYPHIMURIUM, Strain/Indicator: TA100, Metabolic Activation: NONE, Method: STANDARD PLATE
[4] = Test System: AMES SALMONELLA TYPHIMURIUM, Strain/Indicator: TA100, Metabolic Activation: RAT, LIVER, S-9, AROCLOR 1254, Method: STANDARD PLATE
[5] = Test System: AMES SALMONELLA TYPHIMURIUM, Strain/Indicator: TA1535, Metabolic Activation: NONE, Method: STANDARD PLATE
[6] = Test System: AMES SALMONELLA TYPHIMURIUM, Strain/Indicator: TA1535, Metabolic Activation: RAT, LIVER, S-9, AROCLOR 1254, Method: STANDARD PLATE
[7] = Test System: AMES SALMONELLA TYPHIMURIUM, Strain/Indicator: TA1537, Metabolic Activation: NONE, Method: STANDARD PLATE
[8] = Test System: AMES SALMONELLA TYPHIMURIUM, Strain/Indicator: TA1537, Metabolic Activation: RAT, LIVER, S-9, AROCLOR 1254, Method: STANDARD PLATE
[9] = Test System: AMES SALMONELLA TYPHIMURIUM, Strain/Indicator: TA102, Metabolic Activation: NONE, Method: STANDARD PLATE

Measured: mutagenic call

CC(C)CC(C)N (stereo unspecified)
inactive: Test System: AMES SALMONELLA TYPHIMURIUM, Strain/Indicator: TA98, Metabolic Activation: HAMSTER, LIVER, S-9, AROCLOR 1254 (10%), Method: PREINCUBATION inactive; negative | Test System: AMES SALMONELLA TYPHIMURIUM, Strain/Indicator: TA98, Metabolic Activation: NONE, Method: PREINCUBATION inactive; negative | Test System: AMES SALMONELLA TYPHIMURIUM, Strain/Indicator: TA98, Metabolic Activation: RAT, LIVER, S-9, AROCLOR 1254 (10%), Method: PREINCUBATION inactive; negative | Test System: AMES SALMONELLA TYPHIMURIUM, Strain/Indicator: TA100, Metabolic Activation: HAMSTER, LIVER, S-9, AROCLOR 1254 (10%), Method: PREINCUBATION inactive; negative | Test System: AMES SALMONELLA TYPHIMURIUM, Strain/Indicator: TA100, Metabolic Activation: NONE, Method: PREINCUBATION inactive; negative | Test System: AMES SALMONELLA TYPHIMURIUM, Strain/Indicator: TA100, Metabolic Activation: RAT, LIVER, S-9, AROCLOR 1254 (10%), Method: PREINCUBATION inactive; negative | Test System: AMES SALMONELLA TYPHIMURIUM, Strain/Indicator: TA1535, Metabolic Activation: HAMSTER, LIVER, S-9, AROCLOR 1254 (10%), Method: PREINCUBATION inactive; negative | Test System: AMES SALMONELLA TYPHIMURIUM, Strain/Indicator: TA1535, Metabolic Activation: NONE, Method: PREINCUBATION inactive; negative | Test System: AMES SALMONELLA TYPHIMURIUM, Strain/Indicator: TA1535, Metabolic Activation: RAT, LIVER, S-9, AROCLOR 1254 (10%), Method: PREINCUBATION inactive; negative | Test System: AMES SALMONELLA TYPHIMURIUM, Strain/Indicator: TA1537, Metabolic Activation: HAMSTER, LIVER, S-9, AROCLOR 1254 (10%), Method: PREINCUBATION inactive; negative | Test System: AMES SALMONELLA TYPHIMURIUM, Strain/Indicator: TA1537, Metabolic Activation: NONE, Method: PREINCUBATION inactive; negative | Test System: AMES SALMONELLA TYPHIMURIUM, Strain/Indicator: TA1537, Metabolic Activation: RAT, LIVER, S-9, AROCLOR 1254 (10%), Method: PREINCUBATION inactive; negative

CN(C)c1ccc(C(=C2C=CC(=[N+](C)C)C=C2)c2ccccc2Cl)cc1
inactive: Test System: Ames Salmonella typhimurium, Strain/Indicator: TA98, Metabolic Activation: None, Method: Preincubation inactive; negative | Test System: Ames Salmonella typhimurium, Strain/Indicator: TA98, Metabolic Activation: Rat, Liver, S-9, Aroclor 1254, Method: Preincubation inactive; negative | Test System: Ames Salmonella typhimurium, Strain/Indicator: TA100, Metabolic Activation: None, Method: Preincubation inactive; negative | Test System: Ames Salmonella typhimurium, Strain/Indicator: TA100, Metabolic Activation: Rat, Liver, S-9, Aroclor 1254, Method: Preincubation inactive; negative | Test System: Ames Salmonella typhimurium, Strain/Indicator: TA102, Metabolic Activation: None, Method: Preincubation inactive; negative | Test System: Ames Salmonella typhimurium, Strain/Indicator: TA102, Metabolic Activation: Rat, Liver, S-9, Aroclor 1254, Method: Preincubation inactive; negative | Test System: Ames Salmonella typhimurium, Strain/Indicator: TA1535, Metabolic Activation: None, Method: Preincubation inactive; negative | Test System: Ames Salmonella typhimurium, Strain/Indicator: TA1535, Metabolic Activation: Rat, Liver, S-9, Aroclor 1254, Method: Preincubation inactive; negative

Cc1cc(C)c(S(=O)(=O)O)cc1N=Nc1cc(S(=O)(=O)O)c2ccccc2c1O
inactive: Test System: AMES SALMONELLA TYPHIMURIUM, Strain/Indicator: TA98, Metabolic Activation: HAMSTER, LIVER, S-9, AROCLOR 1254, Method: STANDARD PLATE inactive; negative | [1] inactive; negative | Test System: AMES SALMONELLA TYPHIMURIUM, Strain/Indicator: TA98, Metabolic Activation: RAT LIVER S-9, AROCLOR 1254, Method: STANDARD PLATE inactive; negative | [2] inactive; negative | Test System: AMES SALMONELLA TYPHIMURIUM, Strain/Indicator: TA100, Metabolic Activation: HAMSTER, LIVER, S-9, AROCLOR 1254, Method: STANDARD PLATE inactive; negative | [3] inactive; negative | Test System: AMES SALMONELLA TYPHIMURIUM, Strain/Indicator: TA100, Metabolic Activation: RAT LIVER S-9, AROCLOR 1254, Method: STANDARD PLATE inactive; negative | [4] inactive; negative | Test System: AMES SALMONELLA TYPHIMURIUM, Strain/Indicator: TA1535, Metabolic Activation: HAMSTER, LIVER, S-9, AROCLOR 1254, Method: STANDARD PLATE inactive; negative | [5] inactive; negative | [6] inactive; negative | Test System: AMES SALMONELLA TYPHIMURIUM, Strain/Indicator: TA1537, Metabolic Activation: HAMSTER, LIVER, S-9, AROCLOR 1254, Method: STANDARD PLATE inactive; negative | [7] inactive; negative | [8] inactive; negative | Test System: AMES SALMONELLA TYPHIMURIUM, Strain/Indicator: TA1538, Metabolic Activation: HAMSTER, LIVER, S-9, AROCLOR 1254 (2.5-20%), Method: PREINCUBATION inactive; negative | Test System: AMES SALMONELLA TYPHIMURIUM, Strain/Indicator: TA1538, Metabolic Activation: HAMSTER, LIVER, S-9, AROCLOR 1254, Method: STANDARD PLATE inactive; negative | Test System: AMES SALMONELLA TYPHIMURIUM, Strain/Indicator: TA1538, Metabolic Activation: NONE, Method: STANDARD PLATE inactive; negative | Test System: AMES SALMONELLA TYPHIMURIUM, Strain/Indicator: TA1538, Metabolic Activation: RAT, LIVER, S-9, AROCLOR 1254, Method: STANDARD PLATE inactive; negative | Test System: MOUSE LYMPHOMA, Strain/Indicator: L5178Y (TK+/TK-), Metabolic Activation: NONE, Method: SUSPENSION/PLATE inactive; negative. reevaluation of results: negative | Test System: MOUSE LYMPHOMA, Strain/Indicator: L5178Y (TK+/TK-), Metabolic Activation: RAT, LIVER, S-9, AROCLOR 1254, Method: SUSPENSION/PLATE inactive; negative. reevaluation of results: negative

Clc1ccc2c(c1)C(c1ccccc1)=NCc1nncn1-2
inactive: [1] inactive; negative | [2] inactive; negative | [3] inactive; negative | [4] inactive; negative | [9] inactive; negative | Test System: AMES SALMONELLA TYPHIMURIUM, Strain/Indicator: TA102, Metabolic Activation: RAT, LIVER, S-9, AROCLOR 1254, Method: STANDARD PLATE inactive; negative | [5] inactive; negative | [6] inactive; negative | [7] inactive; negative | [8] inactive; negative | Test System: E. COLI, Strain/Indicator: WP2 UVRA, Metabolic Activation: NONE, Method: STANDARD PLATE inactive; negative | Test System: E. COLI, Strain/Indicator: WP2 UVRA, Metabolic Activation: RAT, LIVER, S-9, AROCLOR 1254, Method: STANDARD PLATE inactive; negative

O=C(O)[C@@H]1CSCN1
inactive: [9] inactive; negative | Test System: AMES SALMONELLA TYPHIMURIUM, Strain/Indicator: TA102, Metabolic Activation: RAT, LIVER, S-9, PHENOBARBITAL, Method: STANDARD PLATE inactive; negative | Test System: AMES SALMONELLA TYPHIMURIUM, Strain/Indicator: TA104, Metabolic Activation: NONE, Method: STANDARD PLATE inactive; negative | Test System: AMES SALMONELLA TYPHIMURIUM, Strain/Indicator: TA104, Metabolic Activation: RAT, LIVER, S-9, PHENOBARBITAL, Method: STANDARD PLATE inactive; negative
